Test results published in patent publication US20190015400A1, “Antifungal Compositions” (priority 2017, published 2019).

Key:
[1] = system: C. albicans ATCC 10231 (strain B); experiment: Time-kill assay, POS and EBA; format: cell-based, Candida albicans; details: drug alone (POS at concentration used in MICcombination; NYT, AMB at 1×MIC), inoculum 10^5
Procedure: The protocol for time-kill assays followed methods previously described with minor modifications. Yeast cultures were grown overnight in YEPD medium at 35° C. with shaking at 200 rpm. A working stock of fungal cells was made by diluting cultures in 1640 medium to an OD600 of 0.125 (˜1×10^6 CFU/mL). From the working stock, 100 μL of cells was added to 4.9 mL of RPMI 1640 medium in sterile culture tubes, making the starting fungal cell concentration ˜1×10^5 CFU/mL. Drug was then added to the fungal cells. […] Treated fungal cultures were incubated in the culture tubes at 35° C. with 200 rpm shaking for 24 h. Samples were aliquoted from the different treatments at regular time points (0, 3, 6, 9, 12, and 24 h) and plated in duplicate. For each time point, cultures were vortexed, 100 μL of culture was aspirated, and 10-fold serial dilutions were made in sterile ddH2O. From the appropriate dilutions, 100 μL of fungal suspension was spread on PDA plates and incubated at 35° C. for 48 h before colony counts were determined. At 24 h, 50 μL of 1 mM resazurin in phosphate buffered saline (PBS) was added to the treatments and incubated at 35° C. with 200 rpm shaking for 2 h in the dark for visual inspection. […] Experiments were performed in duplicate.

[2] = system: 13 Candida spp. strains (strains A-M); experiment: MIC and checkerboard assay, azoles + antihistamines, panel; format: cell-based
Procedure: Determination of minimum inhibitory concentration (MIC) values. MIC values were recorded for all antifungals and antihistamines in order to determine the concentration range of compounds to be used in the checkerboard assays.
The MIC assays were done using the broth microdilution method as described in CLSI document M27-A3 with minor modifications. Yeast cultures were started by picking a colony from a PDA plate stored at 4° C. The colonies were grown in YEPD medium overnight at 35° C. with shaking at 200 rpm. In a 96-well plate compounds were diluted lengthwise along the plate in serial 2-fold dilutions in the RPMI 1640 medium. The yeast cultures were diluted in RPMI 1640 medium to an OD600 within the range of 0.12 and 0.15 (˜1×10^6 cells/mL). The fungal cells were further diluted by taking 25 μL of fungal cells and adding them to 10 mL of RPMI 1640 medium before adding 100 μL to plate (200 μL total volume). The plates were incubated at 35° C. for 48 h. Visual inspection of the wells for no growth was used to determine the MIC. All compounds were tested in duplicate (TABLES 6 and 7).
Checkerboard assays were done as previously described to determine the fractional inhibitory concentration index (FICI). 2-fold dilutions of the azole drug were made in RPMI 1640 medium lengthwise along the plate. […] The FICI was calculated based on the formula below. […]

[3] = system: C. albicans ATCC 64124 (strain F); experiment: Time-kill assay, azoles + compound 2; format: cell-based, Candida albicans; details: drug alone at the concentration of the 8×MICcombo sample; 24 h
Procedure: Each sample was incubated at 35° C. with shaking at 200 rpm. At various time points (0, 3, 6, 9, 12, and 24 h), 100 μL aliquots were taken from each sample and serially diluted (10-fold dilutions) in sterile ddH2O. 100 μL of each dilution was spread onto PDA plates and incubated at 35° C. for 48 h before colony counts were determined (FIGS. 2A-B). At the end of the 24-h experiment, 50 μL of 1 mM sterile resazurin solution was added to each sample for visual comparison of growth. Each experiment was performed in duplicate.

[4] = system: C. albicans ATCC 10231 (strain B) biofilm; experiment: Biofilm disruption assay (XTT, SMIC90), POS and EBA; format: cell-based, Candida albicans; details: drug alone
Procedure: (§1) Biofilm disruption assays. […] Biofilm assays were performed in 96-well plates using XTT [2,3-bis(2-methoxy-4-nitro-5-sulfophenyl)-2H-tetrazolium-5-carboxanilide] to measure the viability of the biofilm as previously described. An overnight culture of yeast was grown at 35° C. in YEPD medium with shaking at 200 rpm. The overnight culture was diluted in RPMI 1640 medium to an OD600 between 0.12 and 0.15 to make a working stock. Working stock was transferred to the 96-well plate in 100 μL aliquots, leaving one column empty for the sterile control. The plates were incubated at 37° C. for 24 h to allow formation of the biofilm. The medium and planktonic cells from the plate were then aspirated. PBS was then used to wash any remaining planktonic cells off of the biofilm wells. 100 μL of PBS was aliquoted into wells and then removed. The wells were washed 3 times with PBS. […] Plates were incubated at 37° C. for 24 h. Finally, the plates were washed 3 times with PBS before adding 100 μL of XTT dye. The XTT was prepared by dissolving XTT at 0.5 mg/mL concentration in sterile PBS. Before adding to a plate, 1 μL of 10 mM menadione in acetone was added to 10 mL of the 0.5 mg/mL solution of XTT. After addition of XTT (containing menadione), the plates were incubated at 3 h at 37° C. in the dark. 80 μL of liquid from each well was transferred to a new plate. Plates were then read with a SpectraMax M5 plate reader (Molecular Devices, Sunnyvale, Calif., USA) for absorbance at 450 nm. For these experiments, we determined the sessile MIC (SMIC90), which is defined as the drug concentration required to inhibit the metabolic activity of biofilm by 90% compared to the growth control. The SMIC90 values were used to calculate the FICI as described above (TABLE 10). The plates used to determine the SMIC90 are provided in FIGS. 91A-H. Each assay was performed in duplicate.

[5] = system: C. albicans ATCC 64124 (strain F) biofilm; experiment: as above; format: cell-based, Candida albicans; details: drug alone
Procedure: as §1

Question: How did the “CFU/mL at 24 h” value [1] turn out when `CC[C@@H]([C@H](C)O)n1ncn(-c2ccc(N3CCN(c4ccc(OC[C@@H]5CO[C@@](Cn6cncn6)(c6ccc(F)cc6F)C5)cc4)CC3)cc2)c1=O` [POS, posaconazole] was run?
Answer: 10^8 CFU/mL

Question: What about the MIC ([2]; Candida, drug alone against sensitive fungal strains) of the same molecule?
Answer: 0.25 to 1 µg/mL

Question: What about the “MIC in synergistic combinations” value ([2]; synergistic POS + EBA combinations, MIC of the labelled drug) of the same molecule?
Answer: 0.008 to 0.5 µg/mL

Question: What about the “increase in CFU/mL” value [3] of the same molecule?
Answer: about 1 order of magnitude

Question: What about the SMIC90 [4] of the same molecule?
Answer: > 32 µg/mL

Question: What about the SMIC90 [5] of the same molecule?
Answer: > 32 µg/mL
